From patent US12570642B2, “GLP-IR modulating compounds” (Gilead Sciences, Inc., priority 2021, dated 2026)

The compounds below were run against GLP-1R (Homo sapiens, UniProt P43220) (assay: GLP-1R Activation - cAMP Assay). Settings: cAMP increase in CHO cells stably expressing GLP-1R; each compound run on one of the two cAMP assays (Assay 1 or Assay 2, not specified).
Type: cell-based
In short: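 CHO cells stably expressing GLP-1R, plated at 1,000 cells/well overnight, then equilibrated 1 h in HBSS with 20 mM Hepes and 0.1% BSA. Agonist added as 10-point dose response for 30 min at 37 °C. cAMP measured by HTRF (Cisbio Gs Dynamic kit); EC50 from sigmoidal fit.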

Sequence of GLP-1R (P43220 24-463): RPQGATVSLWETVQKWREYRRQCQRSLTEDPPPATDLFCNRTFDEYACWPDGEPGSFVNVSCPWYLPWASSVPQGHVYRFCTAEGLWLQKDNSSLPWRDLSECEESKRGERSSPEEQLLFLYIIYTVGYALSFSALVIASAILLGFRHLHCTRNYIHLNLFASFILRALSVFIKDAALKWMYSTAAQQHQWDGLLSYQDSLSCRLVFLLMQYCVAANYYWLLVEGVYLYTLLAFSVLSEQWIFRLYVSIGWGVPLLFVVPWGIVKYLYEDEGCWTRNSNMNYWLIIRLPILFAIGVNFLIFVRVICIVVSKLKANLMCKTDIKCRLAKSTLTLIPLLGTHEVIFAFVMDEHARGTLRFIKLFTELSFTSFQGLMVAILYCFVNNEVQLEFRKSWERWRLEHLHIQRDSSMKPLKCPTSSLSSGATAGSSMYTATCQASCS

SMILES	EC50
CC1(C)COC[C@H]1n1c(Cc2cc(F)c(-c3cccc(OCc4ccc(C#N)cc4F)n3)cc2Cl)nc2ccc(C(=O)O)cc21 [Example 257, (S)-2-(2-chloro-4-(6-((4-cyano-2-fluorobenzyl)oxy)pyridin-2-yl)-5-fluorobenzyl)-1-(4,4-dimethyltetrahydrofuran-3-yl)-1H-benzo[d]imidazole-6-carboxylic acid]	0.064 nM
COCCn1c(Cc2cc(F)c(-c3cccc(OCc4ccc5c(c4)CN(C(=O)OC)C5)n3)cc2Cl)nc2c(F)cc(C(=O)O)cc21 [Example 258, 2-(2-chloro-5-fluoro-4-(6-((2-(methoxycarbonyl)isoindolin-5-yl)methoxy)pyridin-2-yl)benzyl)-4-fluoro-1-(2-methoxyethyl)-1H-benzo[d]imidazole-6-carboxylic acid]	0.24 nM
COC(=O)N1Cc2ccc(COc3cccc(-c4cc(F)c(Cc5nc6c(F)cc(C(=O)O)cc6n5[C@@H]5COCC5(C)C)cc4F)n3)cc2C1 [Example 263, (S)-2-(2,5-difluoro-4-(6-((2-(methoxycarbonyl)isoindolin-5-yl)methoxy)pyridin-2-yl)benzyl)-1-(4,4-dimethyltetrahydrofuran-3-yl)-4-fluoro-1H-benzo[d]imidazole-6-carboxylic acid]	0.709 nM
CC1(C)COCC1n1c(Cc2cc(F)c(-c3cccc(OCc4ncc(C(F)(F)F)cc4F)n3)cc2F)nc2c(F)cc(C(=O)O)cc21 (stereo not drawn) [Example 264, 2-(2,5-difluoro-4-(6-((3-fluoro-5-(trifluoromethyl)pyridin-2-yl)methoxy)pyridin-2-yl)benzyl)-1-(4,4-dimethyltetrahydrofuran-3-yl)-4-fluoro-1H-benzo[d]imidazole-6-carboxylic acid]	0.155 nM
Cc1cc(Cc2nc3c(F)cc(C(=O)O)cc3n2[C@@H]2COCC2(C)C)c(F)cc1-c1ccnc(OCc2ccc(C#N)cc2F)n1 [Example 265, (S)-2-(4-(2-((4-cyano-2-fluorobenzyl)oxy)pyrimidin-4-yl)-2-fluoro-5-methylbenzyl)-1-(4,4-dimethyltetrahydrofuran-3-yl)-4-fluoro-1H-benzo[d]imidazole-6-carboxylic acid]	0.171 nM
N#Cc1ccc(COc2cccc(-c3cc(F)c(Cc4nc5ccc(C(=O)O)cc5n4C4COCC45CC5)cc3F)n2)c(F)c1 (stereo not drawn) [Example 268, 2-(4-(6-((4-cyano-2-fluorobenzyl)oxy)pyridin-2-yl)-2,5-difluorobenzyl)-1-(5-oxaspiro[2.4]heptan-7-yl)-1H-benzo[d]imidazole-6-carboxylic acid]	0.175 nM
N#Cc1ccc(COc2cccc(-c3cc(F)c(Cc4nc5ccc(C(=O)O)cc5n4CC4(C5CC5)CCCO4)cc3F)n2)c(F)c1 (stereo not drawn) [Example 273, 2-(4-(6-((4-cyano-2-fluorobenzyl)oxy)pyridin-2-yl)-2,5-difluorobenzyl)-1-((2-cyclopropyltetrahydrofuran-2-yl)methyl)-1H-benzo[d]imidazole-6-carboxylic acid]	0.942 nM
N#Cc1ccc(COc2cccc(-c3cc(F)c(Cc4nc5ccc(C(=O)O)cc5n4CC4CC5(CC5)CO4)cc3F)n2)c(F)c1 (stereo not drawn) [Example 274, 1-(5-oxaspiro[2.4]heptan-6-ylmethyl)-2-(4-(6-((4-cyano-2-fluorobenzyl)oxy)pyridin-2-yl)-2,5-difluorobenzyl)-1H-benzo[d]imidazole-6-carboxylic acid]	0.643 nM
CC1(C)COC[C@H]1n1c(Cc2ccc(-c3ccc(F)c(OCc4ccc(C#N)cc4F)n3)cc2)nc2ccc(C(=O)O)cc21 [Example 277, (S)-2-(4-(6-((4-cyano-2-fluorobenzyl)oxy)-5-fluoropyridin-2-yl)benzyl)-1-(4,4-dimethyltetrahydrofuran-3-yl)-1H-benzo[d]imidazole-6-carboxylic acid]	0.34 nM
Cc1cc(Cc2nc3ccc(C(=O)O)cc3n2[C@@H]2COCC2(C)C)c(F)cc1-c1cccc(OCc2ccc(C#N)cc2F)n1 [Example 278, (S)-2-(4-(6-((4-cyano-2-fluorobenzyl)oxy)pyridin-2-yl)-2-fluoro-5-methylbenzyl)-1-(4,4-dimethyltetrahydrofuran-3-yl)-1H-benzo[d]imidazole-6-carboxylic acid]	0.085 nM
Cc1cc(Cc2nc3ccc(C(=O)O)cc3n2[C@@H]2COCC2(C)C)c(F)cc1-c1ccc(F)c(OCc2ccc(C#N)cc2F)n1 [Example 279, (S)-2-(4-(6-((4-cyano-2-fluorobenzyl)oxy)-5-fluoropyridin-2-yl)-2-fluoro-5-methylbenzyl)-1-(4,4-dimethyltetrahydrofuran-3-yl)-1H-benzo[d]imidazole-6-carboxylic acid]	0.195 nM
Cc1cc(Cc2nc3ccc(C(=O)O)cc3n2[C@@H]2COCC2(C)C)c(F)cc1-c1cccc(OCc2ccc(Cl)cc2F)n1 [Example 280, (S)-2-(4-(6-((4-chloro-2-fluorobenzyl)oxy)pyridin-2-yl)-2-fluoro-5-methylbenzyl)-1-(4,4-dimethyltetrahydrofuran-3-yl)-1H-benzo[d]imidazole-6-carboxylic acid]	0.165 nM
COCCn1c(Cc2c(F)cc(-c3cccc(OCc4ccc(C#N)cc4)n3)c(F)c2F)nc2ccc(C(=O)O)cc21 [Example 281, 2-(4-(6-((4-cyanobenzyl)oxy)pyridin-2-yl)-2,3,6-trifluorobenzyl)-1-(2-methoxyethyl)-1H-benzo[d]imidazole-6-carboxylic acid]	0.655 nM
CC1(C)COC[C@H]1n1c(Cc2c(F)cc(-c3ccc(F)c(OCc4ccc(Cl)cc4)n3)c(F)c2F)nc2ccc(C(=O)O)cc21 [Example 282, (S)-2-(4-(6-((4-chlorobenzyl)oxy)-5-fluoropyridin-2-yl)-2,3,6-trifluorobenzyl)-1-(4,4-dimethyltetrahydrofuran-3-yl)-1H-benzo[d]imidazole-6-carboxylic acid]	0.192 nM
CC1(C)COC[C@H]1n1c(Cc2c(F)cc(-c3ccc(F)c(OCc4ccc(C#N)cc4)n3)c(F)c2F)nc2ccc(C(=O)O)cc21 [Example 283, (S)-2-(4-(6-((4-cyanobenzyl)oxy)-5-fluoropyridin-2-yl)-2,3,6-trifluorobenzyl)-1-(4,4-dimethyltetrahydrofuran-3-yl)-1H-benzo[d]imidazole-6-carboxylic acid]	0.477 nM
Cc1cc(Cc2nc3ccc(C(=O)O)cc3n2[C@@H]2COCC2(C)C)c(F)cc1-c1ccnc(OCc2ccc(Cl)cc2F)n1 [Example 284, (S)-2-(4-(2-((4-chloro-2-fluorobenzyl)oxy)pyrimidin-4-yl)-2-fluoro-5-methylbenzyl)-1-(4,4-dimethyltetrahydrofuran-3-yl)-1H-benzo[d]imidazole-6-carboxylic acid]	0.135 nM
CC1(C)COC[C@H]1n1c(Cc2cc(F)c(-c3ccnc(OCc4ccc(C(F)(F)F)cc4F)n3)cc2F)nc2ccc(C(=O)O)cc21 [Example 285, (S)-2-(2,5-difluoro-4-(2-((2-fluoro-4-(trifluoromethyl)benzyl)oxy)pyrimidin-4-yl)benzyl)-1-(4,4-dimethyltetrahydrofuran-3-yl)-1H-benzo[d]imidazole-6-carboxylic acid]	0.096 nM
Cc1ccc(COc2cccc(-c3cc(F)c(Cc4nc5ccc(C(=O)O)cc5n4C4COCC4(C)C)cc3F)n2)c(Cl)n1 (stereo not drawn) [Example 286, 2-(4-(6-((2-chloro-6-methylpyridin-3-yl)methoxy)pyridin-2-yl)-2,5-difluorobenzyl)-1-(4,4-dimethyltetrahydrofuran-3-yl)-1H-benzo[d]imidazole-6-carboxylic acid]	0.099 nM
CC1(C)COC[C@H]1n1c(Cc2cc(F)c(-c3cccc(OCc4ncc(Cl)cc4F)n3)cc2F)nc2c(F)cc(C(=O)O)cc21 [Example 287, (S)-2-(4-(6-((5-chloro-3-fluoropyridin-2-yl)methoxy)pyridin-2-yl)-2,5-difluorobenzyl)-1-(4,4-dimethyltetrahydrofuran-3-yl)-4-fluoro-1H-benzo[d]imidazole-6-carboxylic acid]	0.051 nM
COc1cc(Cl)ncc1COc1cccc(-c2cc(F)c(Cc3nc4c(F)cc(C(=O)O)cc4n3[C@@H]3COCC3(C)C)cc2F)n1 [Example 288, (S)-2-(4-(6-((6-chloro-4-methoxypyridin-3-yl)methoxy)pyridin-2-yl)-2,5-difluorobenzyl)-1-(4,4-dimethyltetrahydrofuran-3-yl)-4-fluoro-1H-benzo[d]imidazole-6-carboxylic acid]	0.041 nM
COCCn1c(Cc2cc(F)c(-c3cccc(OCc4cnc(Cl)cc4OC)n3)cc2F)nc2c(F)cc(C(=O)O)cc21 [Example 291, 2-(4-(6-((6-chloro-4-methoxypyridin-3-yl)methoxy)pyridin-2-yl)-2,5-difluorobenzyl)-4-fluoro-1-(2-methoxyethyl)-1H-benzo[d]imidazole-6-carboxylic acid]	0.076 nM
COCCn1c(Cc2c(F)cc(-c3cccc(OCc4ccc(C#N)cc4F)n3)c(F)c2F)nc2c(F)cc(C(=O)O)cc21 [Example 292, 2-(4-(6-((4-cyano-2-fluorobenzyl)oxy)pyridin-2-yl)-2,3,6-trifluorobenzyl)-4-fluoro-1-(2-methoxyethyl)-1H-benzo[d]imidazole-6-carboxylic acid]	0.133 nM
CC1(C)COCC1n1c(Cc2c(F)cc(-c3cccc(OCc4ccc(C#N)cc4F)n3)c(F)c2F)nc2ccc(C(=O)O)cc21 (stereo not drawn) [Example 293, 2-(4-(6-((4-cyano-2-fluorobenzyl)oxy)pyridin-2-yl)-2,3,6-trifluorobenzyl)-1-(4,4-dimethyltetrahydrofuran-3-yl)-1H-benzo[d]imidazole-6-carboxylic acid]	0.04 nM
COc1cc(Cl)ncc1COc1cccc(-c2cc(F)c(Cc3nc4ccc(C(=O)O)cc4n3C3COCC3(C)C)cc2F)n1 (stereo not drawn) [Example 294, 2-(4-(6-((6-chloro-4-methoxypyridin-3-yl)methoxy)pyridin-2-yl)-2,5-difluorobenzyl)-1-(4,4-dimethyltetrahydrofuran-3-yl)-1H-benzo[d]imidazole-6-carboxylic acid]	0.021 nM
